We go through 2 molecules from patent US20240216347A1, “BEZUCLASTINIB FORMULATIONS” (Cogent Biosciences, Inc., priority 2022, published 2024).

The nature of series [1]: Aqueous solubility of Bezuclastinib. Type of series: physicochemical. The settings on record: aqueous buffer. The method, then: Compound (I) was first disclosed in U.S. Pat. No. 9,676,748 B2 and U.S. Pat. No. 10,301,280 B2. In the almost 10 years since, Compound (I) has proven to be difficult to prepare in a tablet form suitable for commercial development. In particular, Compound (I) has a very high melting point (>365° C.) and is practically insoluble in aqueous conditions (0.32 ug/mL at pH 7.0), and most organic solvents. In addition, no suitable salt or co-crystal has been found for of Compound (I), which itself readily crystalizes when forming tablets. Finally, existing tablet forms of Compound (I) allowed a relatively small proportion of API to be loaded into the tablet form, necessitating repeated dosing of many tablets, potentially jeopardizing patient compliance.
(§1) Bezuclastinib has a high melting point and is insoluble in aqueous and most organic solvents. No suitable salt or co-crystal was found.

A short description of series [2]: Influence of pH on solubility. To be noted: Simulated Intestinal Fluid with 0.5% bile salts, fassgf or other biorelevant, thermodynamic from solid; SIF with 0.5% bile salts, 37° C., pH 4.0, 5.5 and 6.0; read-out: free drug concentration (solubility). It is filed as physicochemical. As to the method:
A saturated bezuclastinib suspension was prepared in each media and the samples were stirred overnight using a magnetic stirrer. The total drug concentration was determined by subjecting the samples to 3 minutes in a microcentrifuge at 19,500× gravity. The free drug concentration was determined by subjecting the samples to 7 minutes in an ultracentrifuge at 470,000× gravity. A 100 μL aliquot was withdrawn and diluted in 5× in DMSO and Methanol and tested by the HPLC method. Six (6) replicates were performed in each media. In all conditions, bezuclastinib was poorly soluble (free drug concentration <20 μg/mL).

The nature of series [3]: LogD of Bezuclastinib (Table 1). Type of series: physicochemical.
Description: as §1

For series [4] the following is noted: human, in vivo, po.
Description: (§2) This Example summarizes a single-center, open-label, 2-period, randomized, crossover study of Formulations A and B of bezuclastinib at single ascending dose levels in healthy adult subjects to assess pharmacokinetics and relative bioavailability. Subjects were randomized to receive either a single dose of Formulation A fasted, or a single dose of Formulation B fasted. After a washout period of 21 days, subjects were then crossed over to receive the other formulation. […] Blood draws were taken pre-dose, and 0.5, 1, 2, 3, 4, 6, 8, 12, 16, 24, 48, 72, 96, 120, 144, 168, 192, and 336 h post-dose.
The nature of series [5]: Non-sink dissolution test in simulated intestinal fluid, no gastric transfer. Type of series: physicochemical. The settings on record: SIF 0.5% bile salt, pH 6.5, 37° C., 1 mg API per mL. The method, then: Non-sink dissolution testing was used to determine the kinetic solubility as well as the extent and duration of supersaturation of amorphous dispersions. Spray dried samples were examined under non sink dissolution testing conditions in FIGS. 2-5. Non sink testing was performed with and without a gastric transfer at various bile salt concentrations in biorelevant media including simulated intestinal fluid at pH 6.5 and FaSSIF at pH 6.5. Total drug and free drug concentration were determined as described in Example 2.
Samples were loaded at a concentration of 1 mg API per mL of media. The SDD's tested were 10% and 20% drug loading HPMCAS-L SDD, 20% HPMCAS-H and 20% HPMCAS-L with 5 mg/mL HPMCAS-H added.

The nature of series [6]: Solubility in biorelevant media. Type of series: physicochemical. The settings on record: fassgf or other biorelevant, thermodynamic from solid; all biorelevant media (0.01N HCl, FaSSIF, SIF, FaSSGF), 37° C.; read-out: free drug concentration (solubility). The method, then: Biorelevant media included 0.01N hydrochloric acid, Fast State Simulated Intestinal Fluid (FaSSIF) with and without bile salts, Simulated Intestinal Fluid (SIF) with various concentrations of bile salts (0, 0.5% and 1%) and Fasted State Simulated Gastric Fluid (FaSSGF). A saturated suspension was prepared in each media and the samples were stirred overnight using a magnetic stirrer. The free drug concentration was determined by subjecting the samples to 7 minutes in an ultracentrifuge at 470,000× gravity. A 100 μL aliquot was withdrawn and diluted in 5× in DMSO and Methanol and tested by the HPLC method described in Table 2. Six (6) replicates were performed in each media. In all cases, bezuclastinib was practically insoluble (free drug concentration ≤1.2 μg/mL).

A short description of series [7]: Pka of Bezuclastinib (Table 1). To be noted: Weak Base. Type of series: physicochemical.
Description: as §1

The next series can be described thus: clinical. The settings on record: human, in vivo, po.
Series [8] in a line: Solubility in organic solvents. Type of series: physicochemical. The settings on record: organic solvent or mixture, thermodynamic from solid, 21° C., read-out: free drug concentration (solubility). As to the method:
(Table 3). A saturated suspension was prepared in each solvent and the samples were stirred overnight using a magnetic stirrer. The free drug concentration was determined by subjecting the samples to 7 minutes in an ultracentrifuge at 470,000× gravity. A 100 μL aliquot was withdrawn and diluted in 5× in DMSO and Methanol and tested by the HPLC method. Three (3) replicates were performed in each solvent. Bezuclastinib was poorly soluble (free drug concentration <5.0 mg/mL), other than DMSO (free drug concentration <20 mg/mL).

The subject of series [9] is cells with activating c-kit mutations in the catalytic region. The settings on record: Ma et al., 2002; cited from earlier work.

Values after ≈ are worked out from the molar mass of the structure shown.

Description for clinical: as §2

As usually defined, the logD is the decadic logarithm of the distribution of all forms, ionised or not, between an organic phase and buffer at a given pH. A word on the pKa: it is the negative logarithm of the acid dissociation constant. A low value points to a stronger acid or weaker base. As usually defined, the half-life is the time needed for the level to fall by half in the phase considered. For `Cc1n[nH]c(C(=O)Nc2cnc3[nH]c(-c4ccccc4)cc3c2)c1C` [Bezuclastinib, 3,4-dimethyl-N-(2-phenyl-1H-pyrrolo[2,3-b]pyridin-5-yl)-1H-pyrazole-5-carboxamide], the solubility is 0.32 µg/mL (≈ 0.966 µM) in [1] (aqueous conditions, pH 7.0, read-out: solubility in aqueous conditions); 0.31 µg/mL (≈ 0.935 µM) in [1] (aqueous medium, pH = 7.0, read-out: Aqueous solubility); less than 20 µg/mL in [2]; not above 1.2 µg/mL in series [6]; less than 20000 µg/mL in [8] (DMSO); less than 5000 µg/mL in [8] (organic solvents of Table 3 other than DMSO). The log distribution coefficient (logD) in series [3] was found to be 3.46. Also, the “median time to maximum concentration” value in series [4] is 12 to 16 h. Also, the “Microcentrifuge Assay @ 5 min (total drug)” value in [5] (5 min) is 2.0 µg/mL. Besides, the “Ultracentrifuge Assay @ 5 min (free drug)” value in series [5] (5 min) is 1.5 µg/mL. In addition, in [5] (60 min), the “Microcentrifuge Assay @ 60 min (total drug)” value is 3.4 µg/mL. In addition, the “Ultracentrifuge Assay @ 60 min (free drug)” value in [5] (60 min) was 1.6 µg/mL. The “Microcentrifuge Assay @ 6 hrs (total drug)” value in series [5] (6 hrs) is 2.0 µg/mL. Besides, in [5] (6 hrs), the “Ultracentrifuge Assay @ 6 hrs (free drug)” value is 1.7 µg/mL. The molecule also registered a pKa in [7] of 2.86. For the same molecule, the half-life in “clinical” lay in the range of 48.6 to 71.4 h.

Take `Cc1ccc(NC(=O)c2ccc(CN3CCN(C)CC3)cc2)cc1Nc1nccc(-c2cccnc2)n1` [STI571]: in series [9], the “inhibition of cells with c-kit mutations in the catalytic region” value was “did not inhibit the cells”.
